Patent US12043632B2, “6-heteroaryloxy benzimidazoles and azabenzimidazoles as JAK2 inhibitors” (Ajax Therapeutics, Inc., priority 2020, dated 2024)
pKd: −log10 of the molar value.

Biological target: T1, JAK2 (JH1domain-catalytic, Y1007F,Y1008F) kinase (Homo sapiens, UniProt O60674, Y1007F/Y1008F)
T1 construct: JAK2 (JH1domain-catalytic, Y1007F,Y1008F) kinase was expressed as N-terminal fusion; made in house; host or cells: transiently transfected HEK293 cells
Assay: JAK2 JH1 Domain Binding Assay
Conditions: qPCR readout

T1 sequence (O60674 849-1124 Y1007F/Y1008F limits assumed): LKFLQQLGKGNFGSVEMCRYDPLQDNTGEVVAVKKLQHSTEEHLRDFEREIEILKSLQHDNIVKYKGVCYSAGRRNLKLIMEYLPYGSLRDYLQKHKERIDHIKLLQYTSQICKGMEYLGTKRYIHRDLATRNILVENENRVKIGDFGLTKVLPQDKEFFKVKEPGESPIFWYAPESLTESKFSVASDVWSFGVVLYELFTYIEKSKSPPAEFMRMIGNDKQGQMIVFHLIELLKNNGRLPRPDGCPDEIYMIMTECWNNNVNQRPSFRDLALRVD

Row | SMILES | pKd
1 | COc1n[nH]c2ncc(Oc3cnc4nc(Nc5cc6n(n5)CCCC6(F)F)n(C)c4c3C#N)cc12 [Example I-378, 2-((4,4-difluoro-4,5,6,7-tetrahydropyrazolo[1,5-a]pyridin-2-yl)amino)-6-((3-methoxy-1H-pyrazolo[3,4-b]pyridin-5-yl)oxy)-1-methyl-1H-imidazo[4,5-b]pyridine-7-carbonitrile] | > 8.00
2 | Cn1c(Nc2cc3n(n2)CCCC3(C)C)nc2ncc(Oc3cnn4cc(OCCO)ncc34)c(Cl)c21 [Example I-398, 2-((3-((7-chloro-2-((4,4-dimethyl-4,5,6,7-tetrahydropyrazolo[1,5-a]pyridin-2-yl)amino)-1-methyl-1H-imidazo[4,5-b]pyridin-6-yl)oxy)pyrazolo[1,5-a]pyrazin-6-yl)oxy)ethan-1-ol] | > 8.00
3 | COCc1n[nH]c2ncc(Oc3cnc4nc(Nc5cc6n(n5)CCCC6(F)F)n(C)c4c3C#N)cc12 [Example I-399, 2-((4,4-difluoro-4,5,6,7-tetrahydropyrazolo[1,5-a]pyridin-2-yl)amino)-6-((3-(methoxymethyl)-1H-pyrazolo[3,4-b]pyridin-5-yl)oxy)-1-methyl-1H-imidazo[4,5-b]pyridine-7-carbonitrile] | > 8.00
4 | Cn1c(Nc2cc(C(F)(F)F)n(C3CC4(CCOCC4)C3)n2)nc2ncc(Oc3cnc4[nH]ncc4c3)c(C#N)c21 [Example I-400, 6-((1H-pyrazolo[3,4-b]pyridin-5-yl)oxy)-2-((1-(7-oxaspiro[3.5]nonan-2-yl)-5-(trifluoromethyl)-1H-pyrazol-3-yl)amino)-1-methyl-1H-imidazo[4,5-b]pyridine-7-carbonitrile] | > 8.00
5 | Cn1cc(C(F)(F)F)cc(Nc2nc3ncc(Oc4cnn5ccnc(N[C@@H]6CCOC6)c45)c(Cl)c3n2C)c1=O [Example I-402, (R)-3-((7-chloro-1-methyl-6-((4-((tetrahydrofuran-3-yl)amino)pyrazolo[1,5-a]pyrazin-3-yl)oxy)-1H-imidazo[4,5-b]pyridin-2-yl)amino)-1-methyl-5-(trifluoromethyl)pyridin-2(1H)-one] | > 8.00

Further lines, results first:

Row | pKd | SMILES
6 | > 8.00 | CNc1cc(F)c2c(Oc3cnc4nc(Nc5cc(C(F)(F)F)cn(C)c5=O)n(C)c4c3C#N)cnn2c1 [Example I-395, 6-((4-fluoro-6-(methylamino)pyrazolo[1,5-a]pyridin-3-yl)oxy)-1-methyl-2-((1-methyl-2-oxo-5-(trifluoromethyl)-1,2-dihydropyridin-3-yl)amino)-1H-imidazo[4,5-b]pyridine-7-carbonitrile]
7 | 7.30 to 8.00 | CNc1cn2ncc(Oc3cnc4nc(Nc5cc(C(F)(F)F)cn(C)c5=O)n(C)c4c3C#N)c2c(C)n1 [Example I-396, 1-methyl-2-((1-methyl-2-oxo-5-(trifluoromethyl)-1,2-dihydropyridin-3-yl)amino)-6-((4-methyl-6-(methylamino)pyrazolo[1,5-a]pyrazin-3-yl)oxy)-1H-imidazo[4,5-b]pyridine-7-carbonitrile]
8 | > 8.00 | Cn1cc(C(F)(F)F)cc(Nc2nc3ncc(Oc4cnn5cc(OCCO)ncc45)c(Cl)c3n2C)c1=O [Example I-397, 3-((7-chloro-6-((6-(2-hydroxyethoxy)pyrazolo[1,5-a]pyrazin-3-yl)oxy)-1-methyl-1H-imidazo[4,5-b]pyridin-2-yl)amino)-1-methyl-5-(trifluoromethyl)pyridin-2(1H)-one]
9 | 7.30 to 8.00 | Cn1c(Nc2cc(C(F)(F)F)n(C3CC4(CCOCC4)C3)n2)nc2ncc(Oc3cnc4[nH]ccc4c3)c(C#N)c21 [Example I-401, 6-((1H-pyrrolo[2,3-b]pyridin-5-yl)oxy)-2-((1-(7-oxaspiro[3.5]nonan-2-yl)-5-(trifluoromethyl)-1H-pyrazol-3-yl)amino)-1-methyl-1H-imidazo[4,5-b]pyridine-7-carbonitrile]
10 | > 8.00 | Cn1cc(C(F)(F)F)cc(Nc2nc3ncc(Oc4cnn5cc(NCCN6CCC(F)(F)C6)ncc45)c(Cl)c3n2C)c1=O [Example I-403, 3-((7-chloro-6-((6-((2-(3,3-difluoropyrrolidin-1-yl)ethyl)amino)pyrazolo[1,5-a]pyrazin-3-yl)oxy)-1-methyl-1H-imidazo[4,5-b]pyridin-2-yl)amino)-1-methyl-5-(trifluoromethyl)pyridin-2(1H)-one]
11 | 7.30 to 8.00 | CNc1cn2ncc(Oc3cnc4nc(Nc5cc(C(F)(F)F)cn(C)c5=O)n(C)c4c3)c2cn1 [Example I-404, 1-methyl-3-((1-methyl-6-((6-(methylamino)pyrazolo[1,5-a]pyrazin-3-yl)oxy)-1H-imidazo[4,5-b]pyridin-2-yl)amino)-5-(trifluoromethyl)pyridin-2(1H)-one]
